Data from patent US20080255169A1 (priority 2004, published 2008).
Like-named read-outs stand apart in the source and are kept apart here.

Experiments:
[1] = test system: PC-3 cells; assay: Cell invasion assay: invasion of PC-3 cells through Matrigel; format: cell-based; conditions: Homo sapiens, 72 hours
Excerpt: The overexpression regulates cell adhesion and migration to and invasion through the extracellular matrix. By blocking the interaction between extracellular matrix components like collagen and α2β1 it is possible to block cancer cell migration and invasion in vitro. Prostate cancer cells (PC-3) expressing α2β1 endogenously were used to test the in vitro anticancer potential of the inhibitors of the present invention.
Invasion of PC-3 cells (CRL-1435, ATCC) through Matrigel was studied using BD Biocoat invasion inserts (BD Biosciences). Inserts were stored at −20° C. Before the experiments inserts were allowed to adjust to the room temperature. 500 μl of serum free media (Ham's F12K medium, 2 mM L-glutamine, 1.5 g/l sodium bicarbonate) was added into the inserts and allowed to rehydrate at 37° C. in cell incubator for two hours. The remaining media was aspirated. PC-3 cells were detached, pelleted and suspended into serum free media (50 000 cells/500 μl). 300 μl of cell suspension was added into the insert in the absence (control) or presence of the inhibitor according to the pre-sent invention. Inserts were placed on the 24-well plates; each well containing 700 μl of cell culture media with 3% of fetal bovine serum as chemo-attractant. Cells were allowed to invade for 72 hours at 37° C. in cell incubator. Inserts were washed with 700 μl PBS, and fixed with 4% paraformaldehyde for 10 minutes. Paraformaldehyde was aspirated and cells were washed with 700 μl of PBS and inserts were stained by incubation with hematoxylin for 1 minute. The stain was removed by washing the inserts with 700 μl of PBS. Inserts were allowed to dry. Fixed invaded cells were calculated under the microscope. Invasion % was calculated as a comparison to the control.
Cell invasion assay is used as an in vitro cancer metastatis model. […] Some structures inhibit invasion even with submicromolar concentrations. […] In FIG. 2, the dose response of compound 161 in invasion assay is shown. Compound 161 gave the best EC50 value (0.3 μM) in invasion assay. Invasion assay was done with human prostata cancer cell line, PC-3.

[2] = molecular target: α2β1 integrin (Homo sapiens, UniProt P05556+P17301); assay: Cell adhesion assay; format: cell-based; conditions: for Emax: concentration not given, read-out: Emax in cell adhesion assay; for EC50: read-out: EC50 in cell adhesion assay
α2β1 integrin (Homo sapiens, UniProt P05556+P17301), sequence (P17301 30-1181): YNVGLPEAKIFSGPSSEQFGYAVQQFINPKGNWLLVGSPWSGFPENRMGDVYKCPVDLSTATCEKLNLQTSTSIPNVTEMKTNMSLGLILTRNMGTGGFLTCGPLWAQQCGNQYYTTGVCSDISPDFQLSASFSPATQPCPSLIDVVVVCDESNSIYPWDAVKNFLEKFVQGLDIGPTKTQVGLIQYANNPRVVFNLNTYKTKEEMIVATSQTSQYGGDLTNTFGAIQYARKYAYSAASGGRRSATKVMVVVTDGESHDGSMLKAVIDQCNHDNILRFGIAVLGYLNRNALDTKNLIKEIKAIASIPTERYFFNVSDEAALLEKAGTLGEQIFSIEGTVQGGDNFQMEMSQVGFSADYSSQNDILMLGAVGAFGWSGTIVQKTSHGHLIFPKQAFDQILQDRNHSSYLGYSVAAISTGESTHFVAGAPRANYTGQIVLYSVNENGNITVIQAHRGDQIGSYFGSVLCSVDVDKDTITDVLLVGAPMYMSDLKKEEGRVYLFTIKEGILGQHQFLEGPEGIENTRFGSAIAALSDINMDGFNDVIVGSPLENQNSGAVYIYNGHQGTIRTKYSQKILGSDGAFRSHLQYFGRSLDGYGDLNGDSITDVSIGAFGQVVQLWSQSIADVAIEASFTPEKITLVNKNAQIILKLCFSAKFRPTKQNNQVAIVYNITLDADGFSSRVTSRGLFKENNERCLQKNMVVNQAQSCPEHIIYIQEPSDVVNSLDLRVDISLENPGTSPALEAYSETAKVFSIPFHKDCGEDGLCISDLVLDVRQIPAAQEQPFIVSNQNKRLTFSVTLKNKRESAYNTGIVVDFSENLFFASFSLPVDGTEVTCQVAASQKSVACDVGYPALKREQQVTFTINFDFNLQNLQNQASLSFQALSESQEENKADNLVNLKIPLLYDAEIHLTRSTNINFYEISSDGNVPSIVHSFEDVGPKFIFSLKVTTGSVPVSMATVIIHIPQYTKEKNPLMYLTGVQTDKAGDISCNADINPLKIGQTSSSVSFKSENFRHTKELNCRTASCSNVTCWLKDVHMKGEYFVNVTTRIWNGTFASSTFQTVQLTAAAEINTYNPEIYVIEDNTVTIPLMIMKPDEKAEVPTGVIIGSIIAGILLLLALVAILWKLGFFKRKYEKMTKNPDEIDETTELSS
α2β1 integrin (Homo sapiens, UniProt P05556+P17301), sequence (P05556 21-798 partner): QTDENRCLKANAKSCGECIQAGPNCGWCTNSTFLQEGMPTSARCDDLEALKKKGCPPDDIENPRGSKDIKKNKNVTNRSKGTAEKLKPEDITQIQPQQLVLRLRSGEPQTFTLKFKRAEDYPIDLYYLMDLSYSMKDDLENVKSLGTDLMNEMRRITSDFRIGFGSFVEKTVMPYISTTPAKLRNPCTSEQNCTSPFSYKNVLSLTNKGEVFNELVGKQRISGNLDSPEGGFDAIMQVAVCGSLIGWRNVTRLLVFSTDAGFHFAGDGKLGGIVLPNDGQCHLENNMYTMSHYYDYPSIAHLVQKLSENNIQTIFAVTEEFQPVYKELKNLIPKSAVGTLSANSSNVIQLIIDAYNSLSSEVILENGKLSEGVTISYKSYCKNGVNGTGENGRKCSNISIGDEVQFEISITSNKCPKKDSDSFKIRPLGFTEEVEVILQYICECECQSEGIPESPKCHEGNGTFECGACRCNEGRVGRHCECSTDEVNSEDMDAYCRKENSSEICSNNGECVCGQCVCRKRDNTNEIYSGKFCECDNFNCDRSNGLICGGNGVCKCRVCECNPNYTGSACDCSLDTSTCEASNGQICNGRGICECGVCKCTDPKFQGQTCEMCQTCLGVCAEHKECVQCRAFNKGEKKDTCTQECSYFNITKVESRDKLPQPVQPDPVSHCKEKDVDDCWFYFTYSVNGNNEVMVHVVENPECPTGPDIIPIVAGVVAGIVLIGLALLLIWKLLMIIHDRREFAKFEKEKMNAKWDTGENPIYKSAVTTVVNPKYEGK

[3] = molecular target: α2β1 integrin (Homo sapiens, UniProt P17301); assay: Cell adhesion assay; format: cell-based
α2β1 integrin (Homo sapiens, UniProt P17301), sequence (P17301 30-1181): as the sequence (P17301 30-1181) above
α2β1 integrin (Homo sapiens, UniProt P17301), sequence (P05556 21-798 partner): as the sequence (P05556 21-798 partner) above

[4] = read-out: EC50 in invasion assay

EC50 [1, 4] [nM]	Emax [2] [%]	EC50 [2] [µM]	EC50 ([1]; dose response FIG. 2, read-out: EC50 value in invasion assay) [nM]	melting point [°C]	EC50 in cell adhesion assay [3]	Emax at 50 µM [2] [%]	Emax in cell adhesion assay ([3]; concentration not given) [%]	SMILES
≤ 1000	66	15						Cc1cc(F)ccc1-c1cccc(S(=O)(=O)Nc2ccc(N(C)C)cc2)c1 [Compound 222, N-[4-(dimethylamino)phenyl]-4′-fluoro-2′-methyl-1,1′-biphenyl-3-sulfonamide]
≤ 1000	81	28						Cc1cc(C)nc(Nc2ccc(NS(=O)(=O)c3cccc(Br)c3)cc2)n1 [Compound 183]
≤ 1000	82	34	300					O=S(=O)(Nc1ccc2cc[nH]c2c1)c1ccc(Cl)cc1Cl [Compound 161, 2,4-dichloro-N-(1H-indol-6-yl)-benzenesulfonamide]
≤ 1000	58	25						Cc1cc2cc(NS(=O)(=O)c3ccc(Cl)cc3Cl)ccc2[nH]1 [Compound 131, 2,4-dichloro-N-(2-methyl-1H-indol-5-yl)-benzenesulfonamide]
	70	3		158 to 160				CN(C)c1ccc(NS(=O)(=O)c2cccc(-c3ccc(F)cc3)c2)cc1 [Compound 119, N-[4-(dimethylamino)phenyl]-4′-fluoro-1,1′-biphenyl-3-sulphonamide]
					dd could not be detected	80		Cc1[nH]c2ccc(NS(=O)(=O)c3ccc(Cl)cc3Cl)cc2c1C [Compound 210]
		13		43			65	COc1ccc(-c2cccc(S(=O)(=O)Nc3ccc(N(C)C)cc3)c2)cc1OC [Compound 102, 3′,4′-dimethoxy-biphenyl-3-sulphonic acid (4-dimethylamino-phenyl)-amide]
≤ 1000		24				64		CC(=O)c1ccc(-c2cccc(S(=O)(=O)Nc3ccc(N(C)C)cc3)c2)s1 [Compound 239, 3-(5-acetylthien-2-yl)-N-[4-(dimethylamino)phenyl]benzenesulfonamide]
≤ 1000	70	6						Cc1cc2cc(N(C)S(=O)(=O)c3ccc(Cl)cc3Cl)ccc2n1C [Compound 242, 2,4-dichloro-N-(1,2-dimethyl-1H-indol-5-yl)-N-methyl-benzenesulfonamide]
≤ 1000	78	47						CN(C)c1ccc(N(C)S(=O)(=O)c2cccc(Br)c2)cc1 [Compound 281]
≤ 1000		17				59		COc1ccc(-c2cnn(-c3ccc(NS(=O)(=O)c4ccc(Cl)cc4)cc3)c2)cc1 [Compound 176]
≤ 1000		20				60		Cn1ccc2cc(NS(=O)(=O)c3cccc(-c4ccc(F)cc4)c3)ccc21 [Compound 285, 4′-fluoro-biphenyl-3-sulfonic acid (1-methyl-1H-indol-5-yl)-amide]
≤ 1000	79	33						Cc1cc(C)n(-c2ccc(NS(=O)(=O)c3cccc(-c4ccc(F)cc4)c3)cc2)n1 [Compound 298]
